# Results reported in ChEMBL document CHEMBL1909046, “DrugMatrix in vitro pharmacology data”.
# How the values were obtained:
# [1] = biological target: 5-hydroxytryptamine receptor 4 (Cavia porcellus, UniProt O70528); format: cell membranes, Dunkin-Hartley, Striatum, Membrane; note: in other assays of this panel Not Active means under 50% inhibition at 10 µM
# Substance-P receptor = Substance-P receptor (Homo sapiens, UniProt P25103); format: cell membranes, CHO, Membrane; conditions: cho; note: in other assays of this panel Not Active means under 50% inhibition at 10 µM
# Sequence of Substance-P receptor (P25103 whole entry): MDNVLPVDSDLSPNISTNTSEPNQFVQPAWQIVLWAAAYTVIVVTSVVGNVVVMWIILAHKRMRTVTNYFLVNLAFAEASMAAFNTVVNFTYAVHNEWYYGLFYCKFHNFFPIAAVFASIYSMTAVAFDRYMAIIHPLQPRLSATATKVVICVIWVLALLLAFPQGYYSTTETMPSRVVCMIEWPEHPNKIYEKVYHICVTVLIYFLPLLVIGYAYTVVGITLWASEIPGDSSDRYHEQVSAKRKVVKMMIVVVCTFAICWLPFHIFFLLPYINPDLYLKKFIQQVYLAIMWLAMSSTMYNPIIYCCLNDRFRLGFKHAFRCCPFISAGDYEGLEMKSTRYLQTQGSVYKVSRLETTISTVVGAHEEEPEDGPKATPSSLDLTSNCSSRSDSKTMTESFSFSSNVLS
# [2] = biological target: T1, Vasoactive intestinal polypeptide receptor 1 (Homo sapiens, UniProt P32241); format: cell membranes, Membrane; conditions: ht-29; note: in other assays of this panel Not Active means under 50% inhibition at 10 µM
# T1 sequence (P32241 whole entry): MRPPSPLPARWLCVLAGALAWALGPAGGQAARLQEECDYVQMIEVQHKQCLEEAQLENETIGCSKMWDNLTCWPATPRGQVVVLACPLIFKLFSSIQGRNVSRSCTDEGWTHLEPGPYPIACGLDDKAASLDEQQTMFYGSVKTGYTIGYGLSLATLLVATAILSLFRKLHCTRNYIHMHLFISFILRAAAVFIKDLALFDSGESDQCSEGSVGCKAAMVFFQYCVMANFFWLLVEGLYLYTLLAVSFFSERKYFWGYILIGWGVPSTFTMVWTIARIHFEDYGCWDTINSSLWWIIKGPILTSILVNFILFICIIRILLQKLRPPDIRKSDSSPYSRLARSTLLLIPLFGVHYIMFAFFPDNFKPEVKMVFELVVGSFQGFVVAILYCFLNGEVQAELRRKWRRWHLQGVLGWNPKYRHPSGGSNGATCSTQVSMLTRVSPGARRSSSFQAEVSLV
# [3] = biological target: T2, Nitric oxide synthase, inducible (Mus musculus, UniProt P29477); parameters: species or system Escherichia coli;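 note: inhibition of iNOS enzyme activity measured with L-arginine as substrate; in other assays of this panel Not Active means under 50% inhibition at 10 µM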
# T2 sequence (P29477 whole entry): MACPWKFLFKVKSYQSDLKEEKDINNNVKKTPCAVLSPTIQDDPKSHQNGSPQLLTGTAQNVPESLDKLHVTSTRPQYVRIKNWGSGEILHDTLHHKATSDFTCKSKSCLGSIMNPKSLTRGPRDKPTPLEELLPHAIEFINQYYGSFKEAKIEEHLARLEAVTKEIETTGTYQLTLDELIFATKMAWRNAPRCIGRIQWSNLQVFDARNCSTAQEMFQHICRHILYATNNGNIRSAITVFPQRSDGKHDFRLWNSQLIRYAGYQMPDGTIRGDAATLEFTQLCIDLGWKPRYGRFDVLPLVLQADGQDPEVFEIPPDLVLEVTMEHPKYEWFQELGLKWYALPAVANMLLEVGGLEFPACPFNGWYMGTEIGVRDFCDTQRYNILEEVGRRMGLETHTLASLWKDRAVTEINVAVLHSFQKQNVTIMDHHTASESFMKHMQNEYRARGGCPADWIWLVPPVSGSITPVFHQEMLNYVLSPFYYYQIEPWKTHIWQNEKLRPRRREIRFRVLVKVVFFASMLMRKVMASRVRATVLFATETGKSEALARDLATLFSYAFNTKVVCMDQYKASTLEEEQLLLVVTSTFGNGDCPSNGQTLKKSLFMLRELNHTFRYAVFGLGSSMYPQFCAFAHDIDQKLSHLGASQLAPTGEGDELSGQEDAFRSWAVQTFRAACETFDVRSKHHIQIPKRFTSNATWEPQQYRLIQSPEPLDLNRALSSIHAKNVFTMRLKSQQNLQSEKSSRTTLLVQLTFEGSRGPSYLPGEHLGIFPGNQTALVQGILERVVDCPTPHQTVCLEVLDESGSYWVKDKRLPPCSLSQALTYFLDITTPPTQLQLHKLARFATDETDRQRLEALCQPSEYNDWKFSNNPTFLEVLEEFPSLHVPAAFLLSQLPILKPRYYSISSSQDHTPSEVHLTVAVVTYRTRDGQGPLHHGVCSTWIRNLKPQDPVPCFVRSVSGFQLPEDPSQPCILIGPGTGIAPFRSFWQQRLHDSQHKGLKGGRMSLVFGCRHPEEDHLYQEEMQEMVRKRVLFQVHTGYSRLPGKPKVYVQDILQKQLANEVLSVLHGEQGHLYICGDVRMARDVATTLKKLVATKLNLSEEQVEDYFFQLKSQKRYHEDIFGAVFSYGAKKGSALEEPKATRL
# [4] = biological target: Mitogen-activated protein kinase 3 (Homo sapiens, UniProt P27361); experiment: DRUGMATRIX: Protein Serine/Threonine Kinase, ERK1 enzyme inhibition (substrate: Myelin Basic Protein); parameters: species or system Escherichia coli; conditions: Not Active = under 50% inhibition at 10 µM
# Sequence of Mitogen-activated protein kinase 3 (P27361 whole entry): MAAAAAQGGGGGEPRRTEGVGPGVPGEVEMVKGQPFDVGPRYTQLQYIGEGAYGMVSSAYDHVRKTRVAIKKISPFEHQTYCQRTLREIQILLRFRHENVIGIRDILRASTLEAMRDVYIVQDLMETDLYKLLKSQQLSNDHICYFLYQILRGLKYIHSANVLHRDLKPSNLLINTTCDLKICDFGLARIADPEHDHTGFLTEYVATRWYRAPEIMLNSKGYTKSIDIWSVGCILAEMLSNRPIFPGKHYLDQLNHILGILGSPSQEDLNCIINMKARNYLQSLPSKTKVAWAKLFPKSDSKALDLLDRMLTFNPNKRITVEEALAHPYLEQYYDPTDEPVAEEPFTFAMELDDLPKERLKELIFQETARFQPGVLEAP
# [5] = biological target: Mitogen-activated protein kinase 1 (Homo sapiens, UniProt P28482); experiment: DRUGMATRIX: Protein Serine/Threonine Kinase, ERK2 enzyme inhibition (substrate: Myelin Basic Protein); parameters: species or system Escherichia coli; conditions: Not Active = under 50% inhibition at 10 µM
# Sequence of Mitogen-activated protein kinase 1 (P28482 whole entry): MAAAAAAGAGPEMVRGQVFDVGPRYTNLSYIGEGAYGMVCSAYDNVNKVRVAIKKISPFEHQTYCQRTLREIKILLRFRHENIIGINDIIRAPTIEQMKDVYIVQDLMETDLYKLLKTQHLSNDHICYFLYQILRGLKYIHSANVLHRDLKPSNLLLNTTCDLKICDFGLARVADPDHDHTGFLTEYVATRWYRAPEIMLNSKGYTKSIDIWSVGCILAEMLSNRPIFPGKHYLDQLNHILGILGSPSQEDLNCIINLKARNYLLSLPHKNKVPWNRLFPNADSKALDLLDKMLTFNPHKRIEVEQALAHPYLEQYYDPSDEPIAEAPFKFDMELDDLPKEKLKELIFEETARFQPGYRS
# [6] = biological target: T3, 5-hydroxytryptamine receptor 1A (Rattus norvegicus, UniProt P19327); format: cell membranes, CHO-K1, Membrane; conditions: for Ki: read-out: Ki
# T3 sequence (P19327 whole entry): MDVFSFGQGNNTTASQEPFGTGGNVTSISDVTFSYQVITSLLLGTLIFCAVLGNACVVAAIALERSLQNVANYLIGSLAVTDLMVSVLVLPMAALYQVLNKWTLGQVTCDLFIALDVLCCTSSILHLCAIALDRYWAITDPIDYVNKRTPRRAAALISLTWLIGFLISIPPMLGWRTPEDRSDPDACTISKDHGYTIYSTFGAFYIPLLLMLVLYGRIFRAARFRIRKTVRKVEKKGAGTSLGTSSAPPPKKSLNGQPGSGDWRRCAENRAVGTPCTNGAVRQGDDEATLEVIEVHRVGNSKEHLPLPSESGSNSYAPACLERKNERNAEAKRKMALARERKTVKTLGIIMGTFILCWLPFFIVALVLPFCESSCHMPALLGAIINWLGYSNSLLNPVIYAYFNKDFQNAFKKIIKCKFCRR
# Sequence of 5-hydroxytryptamine receptor 4 (O70528 whole entry): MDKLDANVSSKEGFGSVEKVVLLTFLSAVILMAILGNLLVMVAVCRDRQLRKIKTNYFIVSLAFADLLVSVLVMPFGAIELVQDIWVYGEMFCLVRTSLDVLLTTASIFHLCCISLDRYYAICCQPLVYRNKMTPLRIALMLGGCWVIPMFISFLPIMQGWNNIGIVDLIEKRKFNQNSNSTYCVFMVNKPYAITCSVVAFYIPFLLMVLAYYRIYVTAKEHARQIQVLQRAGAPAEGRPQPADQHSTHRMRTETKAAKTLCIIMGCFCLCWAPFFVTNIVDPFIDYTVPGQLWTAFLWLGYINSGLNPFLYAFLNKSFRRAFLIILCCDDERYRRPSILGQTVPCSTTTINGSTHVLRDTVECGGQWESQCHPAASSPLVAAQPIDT
SMILES,IC50 [1],IC50 (Substance-P receptor),IC50 [2],IC50 [3],IC50 [4],IC50 [5],IC50 ([6]; cho-k1),IC50 ([1]; read-out: IC50) [nM],Ki ([1]; read-out: Ki) [nM],IC50 ([6]; read-out: IC50) [nM],Ki [6] [nM]
O=C(c1ccccc1C(F)(F)F)N1CCC(Cc2ccccc2)CC1,Not Active,Not Active,Not Active,Not Active,Not Active,Not Active,Not Active,–,–,–,–
O=C/C=C/c1ccccc1,Not Active,Not Active,Not Active,Not Active,Not Active,Not Active,Not Active,–,–,–,–
Nc1ccc2c3c(cccc13)C(=O)NC2=O,Not Active,Not Active,Not Active,Not Active,Not Active,Not Active,Not Active,–,–,–,–
COc1ccc(C(=O)N2CCCC2=O)cc1,Not Active,Not Active,Not Active,Not Active,Not Active,Not Active,Not Active,–,–,–,–
O=c1cnn([C@@H]2O[C@H](CO)[C@@H](O)[C@H]2O)c(=O)[nH]1 [6-AZAURIDINE],Not Active,Not Active,Not Active,Not Active,Not Active,Not Active,Not Active,–,–,–,–
CC[C@H](C)[C@H]1O[C@]2(C=C[C@@H]1C)C[C@@H]1C[C@@H](C/C=C(\C)[C@@H](O[C@H]3C[C@H](OC)[C@@H](O[C@H]4C[C@H](OC)[C@@H](O)[C@H](C)O4)[C@H](C)O3)[C@@H](C)/C=C/C=C3\CO[C@@H]4[C@H](O)C(C)=C[C@@H](C(=O)O1)[C@]34O)O2.CO[C@H]1C[C@H](O[C@H]2[C@H](C)O[C@@H](O[C@@H]3/C(C)=C/C[C@@H]4C[C@@H](C[C@]5(C=C[C@H](C)[C@@H](C(C)C)O5)O4)OC(=O)[C@@H]4C=C(C)[C@@H](O)[C@H]5OC/C(=C\C=C\[C@@H]3C)[C@]54O)C[C@@H]2OC)O[C@@H](C)[C@@H]1O [ABAMECTIN],Not Active,Not Active,Not Active,Not Active,Not Active,Not Active,Not Active,–,–,–,–
NCCCC(O)(P(=O)(O)O)P(=O)(O)O [ALENDRONIC ACID],Not Active,Not Active,Not Active,Not Active,Not Active,Not Active,Not Active,–,–,–,–
Cc1nnc2n1-c1ccc(Cl)cc1C(c1ccccc1)=NC2 [ALPRAZOLAM],Not Active,Not Active,Not Active,Not Active,Not Active,Not Active,Not Active,–,–,–,–
Cn1c(=O)c2[nH]cnc2n(C)c1=O.Cn1c(=O)c2[nH]cnc2n(C)c1=O.NCCN [AMINOPHYLLINE],Not Active,Not Active,Not Active,Not Active,Not Active,Not Active,Not Active,–,–,–,–
CCC1(CCC(C)C)C(=O)NC(=O)NC1=O [AMOBARBITAL],Not Active,Not Active,Not Active,Not Active,Not Active,Not Active,Not Active,–,–,–,–
CC1(C)S[C@@H]2[C@H](NC(=O)[C@H](N)c3ccccc3)C(=O)N2[C@H]1C(=O)O [AMPICILLIN],Not Active,Not Active,Not Active,Not Active,Not Active,Not Active,Not Active,–,–,–,–
COc1ccc(C2C(=O)c3ccccc3C2=O)cc1 [ANISINDIONE],Not Active,Not Active,Not Active,Not Active,Not Active,Not Active,Not Active,–,–,–,–
O=C1O[C@H]([C@@H](O)CO)C(O)=C1O [ASCORBIC ACID],Not Active,Not Active,Not Active,Not Active,Not Active,Not Active,Not Active,–,–,–,–
CN1[C@@H]2CC[C@H]1C[C@@H](OC(=O)C(CO)c1ccccc1)C2 (some centres undefined) [ATROPINE],Not Active,Not Active,Not Active,Not Active,Not Active,Not Active,Not Active,–,–,–,–
CC(C(=O)O)c1ccc2oc(-c3ccc(Cl)cc3)nc2c1 (centres undefined) [BENOXAPROFEN],Not Active,Not Active,Not Active,Not Active,Not Active,Not Active,Not Active,–,–,–,–
COc1ccc2cc3[n+](cc2c1OC)CCc1cc2c(cc1-3)OCO2.[Cl-] [BERBERINE CHLORIDE],–,Not Active,Not Active,Not Active,Not Active,Not Active,Not Active,2220,370,–,–
O=C(O)CCNC(=O)c1ccccc1 [BETAMIPRON],Not Active,Not Active,Not Active,Not Active,Not Active,Not Active,Not Active,–,–,–,–
CC(=O)Oc1ccc(C(c2ccc(OC(C)=O)cc2)c2ccccn2)cc1 [BISACODYL],Not Active,Not Active,Not Active,Not Active,Not Active,Not Active,Not Active,–,–,–,–
Cc1cc2c(OCC(CNC(C)(C)C)OC(=O)c3ccccc3)cccc2[nH]1 (centres undefined) [BOPINDOLOL],Not Active,Not Active,Not Active,Not Active,Not Active,Not Active,–,–,–,267,153
Brc1c(NC2=NCCN2)ccc2nccnc12 [BRIMONIDINE],Not Active,Not Active,Not Active,Not Active,Not Active,Not Active,–,–,–,2550,1460
CN(C)[C@@H]1C(O)=C(C(N)=O)C(=O)[C@@]2(O)C(O)=C3C(=O)c4c(O)ccc(Cl)c4[C@@](C)(O)[C@H]3C[C@@H]12 [CHLORTETRACYCLINE],Not Active,Not Active,Not Active,Not Active,Not Active,Not Active,Not Active,–,–,–,–
CN/C(=N\CCSCc1nc[nH]c1C)NC#N [CIMETIDINE],Not Active,Not Active,Not Active,Not Active,Not Active,Not Active,Not Active,–,–,–,–
COc1cc(N)c(Cl)cc1C(=O)NC1CCN(CCCOc2ccc(F)cc2)CC1OC (centres undefined) [CISAPRIDE],–,Not Active,Not Active,Not Active,Not Active,Not Active,–,–,–,2830,1620
